Where two headings read alike, the source gives them in different places.
What was measured:
P. falciparum 3D7 = assay: 3H-hypoxanthine uptake in P. falciparum-infected erythrocytes; format: cell-based, Plasmodium falciparum; details: read-out: EC50 P. falciparum 3D7
pfDHOD = pfDHOD (Plasmodium falciparum (isolate 3D7), UniProt Q08210); assay: DHOD enzyme inhibition, colorimetric DCIP reduction or direct orotic acid assay; format: biochemical
Method: Reactions are initiated by addition of enzyme to a final concentration in the range of about 5 nM to about 50 nM while maintaining the temperature of a circulating water bath at 25° C.
Assay solutions were prepared as discussed above, except that DCIP is not present and the solution is depleted of oxygen by the inclusion of an oxidase/reductase system, such as, 0.1 mg/ml of glucose oxidase, 0.02 mg/ml catalase and 50 mM glucose. The data obtained was fitted to equation 1, to determine the IC50 values of the representative compounds.

[1] = Plasmodium falciparum, 3D7, Erythrocyte
[2] = Plasmodium falciparum, 3D7, Erythrocyte, 3D7 strain

Chain of pfDHOD (Q08210 24-569 limits assumed): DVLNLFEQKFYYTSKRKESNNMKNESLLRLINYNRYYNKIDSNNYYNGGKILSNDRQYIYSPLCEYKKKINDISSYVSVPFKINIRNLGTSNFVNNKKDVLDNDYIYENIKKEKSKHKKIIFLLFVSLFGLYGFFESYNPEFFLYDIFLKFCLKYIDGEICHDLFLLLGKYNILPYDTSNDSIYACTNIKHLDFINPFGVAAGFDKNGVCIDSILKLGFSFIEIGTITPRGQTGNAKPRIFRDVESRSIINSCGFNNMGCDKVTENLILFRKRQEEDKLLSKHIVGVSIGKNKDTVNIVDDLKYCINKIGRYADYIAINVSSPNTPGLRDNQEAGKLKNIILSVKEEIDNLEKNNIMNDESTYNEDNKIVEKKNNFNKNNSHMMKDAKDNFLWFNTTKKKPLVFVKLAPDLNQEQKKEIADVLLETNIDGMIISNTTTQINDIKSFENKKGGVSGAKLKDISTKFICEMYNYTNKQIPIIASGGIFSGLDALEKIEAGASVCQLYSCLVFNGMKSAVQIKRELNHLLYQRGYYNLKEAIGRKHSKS

| SMILES | IC50 (pfDHOD) [µM] | EC50 (P. falciparum 3D7; [2]) [µM] | further results |
| --- | --- | --- | --- |
| Cc1cc(Nc2ccc(Cl)c(F)c2)n2ncnc2n1 | – | – | melting point: 285 °C |
| Cc1cc(NC2Cc3ccc(Br)cc3C2)n2ncnc2n1 (centres unmarked) | – | – | melting point: 164 °C |
| Cc1cc(Nc2ccc(C(F)(F)F)cc2)n2nc(C(F)(F)F)nc2n1 | – | – | melting point: 124 to 126 °C |
| Cc1cc(Nc2ccc(S(F)(F)(F)(F)F)cc2)n2nc(C(F)(F)F)nc2n1 | – | – | melting point: 178 to 180 °C |
| Cc1cc(NC2CCc3ccccc3C2)n2ncnc2n1 (centres unmarked) | 0.5 | – | EC50 (P. falciparum 3D7; [1]): 1.8 µM |
| Cc1cc(Nc2ccc(C(F)(F)F)cc2)n2ccnc2n1 | 0.077 | 0.33 | – |
| Cc1cc(NC2Cc3ccccc3C2)n2ncnc2n1 | 0.5 | 2.4 | – |
| Cc1cc(Nc2ccc(Cl)cc2)n2nc(C(F)(F)F)nc2n1 | 0.09 | 0.26 | – |
| Cc1cc(C)cc(Nc2cc(C)nc3nc(C(F)(F)F)nn23)c1 | 0.22 | 0.7 | – |
| CC(C)c1ccc(Nc2c3c(nc4ncnn24)CCC3)cc1 | 0.25 | 1.8 | – |
| Cc1cc(Nc2ccc(C(F)(F)F)cc2)n2nc(C(C)(F)F)nc2n1 | 0.038 | 0.007 | – |
| CCc1c(C)nc2ncnn2c1Nc1ccc(C(C)C)cc1 | 1.66 | > 10 | – |
| CCc1c(C)nc2ncnn2c1Nc1ccc(OC(F)(F)F)cc1 | – | > 10 | – |
| Cc1cc(Nc2ccc(S(F)(F)(F)(F)F)cc2)n2nc(C(C)(F)F)nc2n1 | – | – | EC50 (P. falciparum 3D7; [1]): 0.019 µM |
| Cc1cc(Nc2ccc3sccc3c2)n2ncnc2n1 | 0.09 | 0.07 | – |
| Cc1cc(Nc2ccc(C)c(Cl)c2)n2nc(C(F)(F)F)nc2n1 | 0.13 | 0.8 | – |
| Cc1cc(Nc2cc(F)c(C(F)(F)F)c(F)c2)n2ncnc2n1 | 0.19 | 0.24 | – |
| Cc1cc(Nc2ccc3c(c2)CCCC3)n2nc(C(F)(F)F)nc2n1 | 0.043 | – | – |
| COc1nc2nc(C)cc(Nc3cccc(Cl)c3)n2n1 | – | 1 | – |
| Cc1cc(NC2Cc3cc(Cl)c(Cl)cc3C2)n2ncnc2n1 | 1.2 | > 5 | – |
| Cc1cc(Nc2ccc(S(F)(F)(F)(F)F)cc2)n2ccnc2n1 | – | 0.6 | – |

| SMILES | IC50 (pfDHOD) [µM] | EC50 (P. falciparum 3D7; [2]) [µM] | further results |
| --- | --- | --- | --- |
| Cc1cc(NC2Cc3cc(F)c(F)cc3C2)n2ncnc2n1 | 1 | 1.5 | – |
| Cc1cc(Nc2ccc(SC(F)(F)F)cc2)n2ncnc2n1 | 0.61 | > 4 | – |
| Cc1cc(NC2Cc3ccc(F)cc3C2)n2ncnc2n1 (centres unmarked) | 0.61 | – | EC50 (P. falciparum 3D7; [1]): 1.3 µM |
| COc1cc2c(cc1OC)CC(Nc1cc(C)nc3ncnn13)C2 | 4.62 | – | EC50 (P. falciparum 3D7; [1]): 7.7 µM |
| Cc1cc(Nc2ccc(F)cc2)n2nc(C(F)(F)F)nc2n1 | 0.74 | 8.5 | – |
| Brc1ccc(Nc2c3c(nc4ncnn24)CCCC3)cc1 | 2.12 | 9.9 | – |
| Cc1cc(Nc2ccc(C(C)(C)C)c(F)c2)n2ncnc2n1 | 0.06 | 0.1 | – |
| Cc1cc(NC2CCc3cc(F)ccc3C2)n2ncnc2n1 (centres unmarked) | 0.63 | – | EC50 (P. falciparum 3D7; [1]): 2.5 µM |
| Cc1cc(Nc2ccc(C(F)(F)F)c(C(F)(F)F)c2)n2ncnc2n1 | 0.54 | – | EC50 (P. falciparum 3D7; [1]): 2.3 µM |
| Cc1cc(Nc2ccc(S(F)(F)(F)(F)F)cc2)n2nc(C)nc2n1 | 0.51 | 0.42 | – |
| Cc1cc(Nc2ccc(Cl)c(F)c2)n2nc(C(F)(F)F)nc2n1 | 0.52 | 0.25 | – |
| Cc1ccc(Nc2c3c(nc4ncnn24)CCC3)cc1F | – | – | EC50 (P. falciparum 3D7; [1]): 8.3 µM |
| FC(F)(F)c1ccc(Nc2cc(C(F)(F)F)nc3ncnn23)cc1 | 1.7 | > 10 | – |
| Cc1cc(NC2CCc3cc(Cl)ccc3C2)n2ncnc2n1 (centres unmarked) | 0.67 | 10 | – |
| Cc1cc(NC2CCc3ccccc3C2)n2nc(C(F)(F)F)nc2n1 (centres unmarked) | 1.2 | – | – |
| Cc1cc(Nc2ccc(C(F)(F)F)c(F)c2)n2nc(C(C)(F)F)nc2n1 | 0.035 | 0.0093 | – |
| Cc1cc(Nc2cc(F)c(C(F)(F)F)c(F)c2)n2nc(C(C)(F)F)nc2n1 | 0.02 | 0.03 | – |
| COc1nc2nc(C)cc(Nc3ccc(S(F)(F)(F)(F)F)cc3)n2n1 | 0.042 | 0.064 | – |
| Cc1cc(Nc2ccc(C(F)(F)F)cc2)n2nc(C(C)C)nc2n1 | 0.11 | – | EC50 (P. falciparum 3D7; [1]): 0.098 µM |
| CCC(F)(F)c1nc2nc(C)cc(Nc3ccc(C(F)(F)F)cc3)n2n1 | 0.19 | – | EC50 (P. falciparum 3D7; [1]): 0.045 µM |
| Cc1cc(Nc2ccc(C(F)(F)F)cc2)n2nc(C3CC3)nc2n1 | 0.14 | – | EC50 (P. falciparum 3D7; [1]): 0.15 µM |

| SMILES | IC50 (pfDHOD) [µM] | EC50 (P. falciparum 3D7; [2]) [µM] | further results |
| --- | --- | --- | --- |
| Cc1cc(Nc2ccc(S(F)(F)(F)(F)F)cc2)n2ncnc2n1 | 0.16 | 18 | – |
| Cc1cc(Nc2cc(F)c(C(F)(F)F)c(F)c2)n2nc(C(F)(F)F)nc2n1 | 0.022 | 0.0048 | – |
| CCc1nc2nc(C)cc(Nc3ccc(S(F)(F)(F)(F)F)cc3)n2n1 | – | 0.1 | – |
| Cc1cc(Nc2ccc(S(F)(F)(F)(F)F)cc2)n2nc(C(C)C)nc2n1 | – | – | EC50 (P. falciparum 3D7; [1]): 0.42 µM |
| CCC(F)(F)c1nc2nc(C)cc(Nc3ccc(S(F)(F)(F)(F)F)cc3)n2n1 | – | – | EC50 (P. falciparum 3D7; [1]): 0.55 µM |
| Cc1cc(Nc2ccc(S(F)(F)(F)(F)F)cc2)n2nc(C3CC3)nc2n1 | – | 0.5 | – |
| Cc1cc(Nc2ccc(Cl)cc2)n2nc(C(C)(F)F)nc2n1 | 0.028 | 0.033 | – |
| Cc1cc(Nc2ccc(CC(F)(F)F)cc2)n2ncnc2n1 [Example 25, 5-Methyl-N-(4-(2,2,2-trifluoroethyl)phenyl)-[1,2,4]triazolo[1,5-a]pyrimidin-7-amine] | – | – | melting point: 204 °C |
| Cc1cc(Nc2ccc(C(F)(F)F)c(F)c2)n2ccnc2n1 [Example 51, N-(3-fluoro-4-(trifluoromethyl)phenyl)-7-methylimidazo[1,2-a]pyrimidin-5-amine] | – | – | melting point: 302 to 304 °C |
| Cc1cc(Nc2ccc3c(c2)CCCC3)n2ccnc2n1 [Example 53, 7-Methyl-N-(5,6,7,8-tetrahydronaphthalen-2-yl)imidazo[1,2-a]pyrimidin-5-amine] | – | – | melting point: 264 to 266 °C |
| Cc1cc(Nc2ccc3c(c2)CCC3)n2ccnc2n1 [Example 54, N-(2,3-dihydro-1H-inden-5-yl)-7-methylimidazo[1,2-a]pyrimidin-5-amine] | – | – | melting point: 255 to 257 °C |
| Cc1cc(Nc2ccc(C(F)(F)F)cc2)n2nc(C(F)(F)F)nc2n1 [drawing 329] | 0.035 | – | EC50 (P. falciparum 3D7; [1]): 0.073 µM |
| Cc1cc(Nc2ccc(C(F)(F)F)c(F)c2)n2ccnc2n1 [drawing 333] | 0.14 | 0.6 | – |
| Cc1cc(Nc2ccc3c(c2)CCCC3)n2ncnc2n1 [drawing 335] | 0.1 | 0.3 | – |
| Cc1cc(Nc2ccc3c(c2)CCC3)n2ccnc2n1 [drawing 336] | 0.13 | 0.6 | – |
| Cc1cc(Nc2ccc(CC(F)(F)F)cc2)n2ncnc2n1 [drawing 337] | 2.47 | – | – |
| Cc1cc(Nc2ccc(Cl)c(F)c2)n2ncnc2n1 [drawing 338] | 0.51 | – | EC50 (P. falciparum 3D7; [1]): 3.5 µM |
| Cc1cc(NC2Cc3ccc(Br)cc3C2)n2ncnc2n1 (centres unmarked) [drawing 343] | 0.99 | – | EC50 (P. falciparum 3D7; [1]): 6.6 µM |
| Cc1cc(Nc2ccc(S(F)(F)(F)(F)F)cc2)n2nc(C(F)(F)F)nc2n1 [drawing 344] | 0.13 | – | EC50 (P. falciparum 3D7; [1]): 0.14 µM |
| Cc1cc(Nc2ccc3c(c2)CCCC3)n2ncnc2n1 [drawing 353] | 0.032 | – | EC50 (P. falciparum 3D7; 3D7 strain): 0.2 µM |

Reference: patent publication US9238653B2, “Antimalarial agents that are inhibitors of dihydroorotate dehydrogenase” (BOARD OF REGENTS, THE UNIVERSITY OF TEXAS SYSTEM, priority 2009, dated 2016)
